According to patent US20250241897A1, “COMPOSITION FOR ERADICATING HELICOBACTER PYLORI” (HK INNO.N CORPORATION, priority 2018, published 2025):

Key:
intragastric pH = experiment: Clinical study 1, Cohort 2: 24-hour intragastric pH measurement on repeated co-administration; format: in vivo, human; details: with amoxicillin/clarithromycin
Source text: To identify an effect of eradicating Helicobacter pylori in the present invention, a clinical study was designed in accordance with a randomized, open-label, active-controlled, parallel and multiple-dose design. A total of 221 patients were subjected to screening for this study. Out of them, 36 patients were registered thereto and the completed clinical results were obtained from 34 patients.
Particularly, the 36 patients above were divided into three patient groups (T1, T2 and R) and the clinical study was performed accordingly. […]
The T1 group was repeatedly given 50 mg of CJ-12420 and 1000 mg of amoxicillin/500 mg of clarithromycin twice a day for seven days; the T2 group was repeatedly given 100 mg of CJ-12420 and 1000 mg of amoxicillin/500 mg of clarithromycin twice a day for seven days; and the R group was repeatedly given 40 mg of pantoprazole and 1000 mg of amoxicillin/500 mg of clarithromycin twice a day for seven days. An intragastric pH was measured from all the subjects on Day 1 for 24 hours, and the intragastric pH was also measured for 24 hours on Day 1 and Day 7 of repeated administration. Also, a negative conversion rate was calculated upon a follow-up visit paid by subjects who were identified to be H. pylori positive on the UBT test during screening, and stability evaluation was performed according to a predetermined schedule. […]

[1] = Clinical study 1, Cohort 1: pharmacokinetic interaction of tegoprazan and amoxicillin/clarithromycin, multiple dose; format: in vivo, human
Protocol: To evaluate pharmacokinetic interaction of multiple-dose administration of single and combination of tegoprazan and amoxicillin/clarithromycin, a clinical study was designed in accordance with a randomized, open-label, and multiple-dose design.
A total of 24 subjects who had been determined eligible to participate in the study were randomly assigned in a 1:1 ratio to each one of the two groups. Each randomly-assigned group was administered with investigational medical products as arranged during each intervention period and underwent a clinical study as designed. In consideration of the half-life of each product, a 14-day wash-out period was given between the intervention periods.
A total of 24 subjects were divided into group 1 and group 2. During the first intervention period, subjects of group 1 (12 person) were repeatedly administered with 100 mg of tegoprazan twice a day for four days and administered once a day on the fifth day on which a pharmacokinetic clinical study was conducted. During the second intervention period after a 14-day wash-out period, they were repeatedly administered with 1000 mg of amoxicillin and 500 mg of clarithromycin twice a day for four days and administered once a day on the fifth day. During the third intervention period after a 14-day wash-out period, they were repeatedly administered with 100 mg of tegoprazan, 1000 mg of amoxicillin, and 500 mg of clarithromycin twice a day for six days and administered once a day on the seventh day. Following the last dose of each intervention period, pharmacokinetic blood samples were collected for 17 times over 72 hours in the first period, 14 times over 48 hours in the second period, and 19 times over 120 hours in the third period.
Drugs were administered to subjects of group 2 (12 person) in the reverse order to the way the study was conducted on group 1 in the first and second intervention periods and in the same order in the third intervention period. Pharmacokinetic blood samples were collected in the same manner as group 1.
The average plasma concentrations of tegoprazan, clarithromycin, and amoxicillin were measured and time-based plasma concentration and time-based drug concentration patterns were observed when tegoprazan was repeatedly administered alone, amoxicillin/clarithromycin were repeatedly administered and tegoprazan, amoxicillin, and clarithromycin were repeatedly administered in combination.
Pharmacokinetics of tegoprazan, amoxicillin, and clarithromycin were evaluated. Descriptive statistics of pharmacokinetic evaluation parameters were presented. Point estimates for geometric mean ratio between each group and 90% confidence interval were calculated from the log-converted primary pharmacokinetic evaluation parameters by using a linear mixed effect model.

[2] = tegoprazan 100 mg twice a day, combination with amoxicillin 1000 mg/clarithromycin 500 mg versus alone
[3] = clarithromycin 500 mg with amoxicillin 1000 mg twice a day, with versus without tegoprazan 100 mg

Row | SMILES | time to increase pH to 6 or more right after the administration (intragastric pH) | increase of AUC of tegoprazan when administered in combination with amoxicillin/clarithromycin [1, 2] [times] | increase of Cmax of tegoprazan when administered in combination with amoxicillin/clarithromycin [1, 2] [times] | AUC of clarithromycin when administered in combination with tegoprazan [1, 3] | Cmax of clarithromycin when administered in combination with tegoprazan [1, 3]
1 | Cc1nc2c(OC3CCOc4cc(F)cc(F)c43)cc(C(=O)N(C)C)cc2[nH]1 (centres unmarked) [Tegoprazan, 4-[(5,7-difluoro-3,4-dihydro-2H-chromene-4-yl)oxy]-N,N,2-trimethyl-1H-benzimidazole-6-carboxamide] | two | 2.70 | 2.24 | – | –
2 | CC[C@H]1OC(=O)[C@H](C)[C@@H](O[C@H]2C[C@@](C)(OC)[C@@H](O)[C@H](C)O2)[C@H](C)[C@@H](O[C@@H]2O[C@H](C)C[C@H](N(C)C)[C@H]2O)[C@](C)(OC)C[C@@H](C)C(=O)[C@H](C)[C@@H](O)[C@]1(C)O [clarithromycin, (3R,4S,5S,6R,7R,9R,11R,12R,13S,14R)-6-[(2S,3R,4S,6R)-4-(dimethylamino)-3-hydroxy-6-methyloxane-2-yl]oxy-14-ethyl-12,13-dihydroxy-4-[(2R,4R,5S,6S)-5-hydroxy-4-methoxy-4,6-dimethyloxane-2-yl]oxy-7-methoxy-3,5,7,9,11,13-hexamethyl-oxacyclotetradecane-2,10-dione, reference compound] | – | – | – | showed a tendency to increase | showed a tendency to increase
